These results are taken from ChEMBL document CHEMBL6096706, “Discovery of WDR5-MLL1 and HDAC Dual-Target Inhibitors for the Treatment of Acute Myeloid Leukemia” (J Med Chem, 2025).

For data set [1], the system named is MV4-11. Briefly: Antiproliferative activity against human MV4-11 cells assessed as growth inhibition at 0.05 uM measured after 72 hrs in presence of 0.05 uM of vorinostat by CellTiterGlo assay. The data set is classed as functional. Particulars: read-out: GI.
The test system of data set [2] is MV4-11. Briefly: Antiproliferative activity against human MV4-11 cells assessed as growth inhibition at 0.1 uM measured after 72 hrs in presence of 0.1 uM of vorinostat by CellTiterGlo assay. Particulars: read-out: GI. The data set is classed as functional. A general note: In ATP-based viability assays light output follows the ATP content of the culture.
The test system of data set [3] is MV4-11. Briefly: Antiproliferative activity against human MV4-11 cells assessed as growth inhibition at 0.1 uM measured after 72 hrs in presence of 0.5 uM of vorinostat by CellTiterGlo assay. Format: functional. Particulars: read-out: GI.
For data set [4], the system named is MV4-11. Briefly: Antiproliferative activity against human MV4-11 cells assessed as growth inhibition at 0.2 uM measured after 72 hrs in presence of 0.1 uM of vorinostat by CellTiterGlo assay. Format: functional. Particulars: read-out: GI.
Data set [5] concerns MV4-11. Briefly: Antiproliferative activity against human MV4-11 cells assessed as growth inhibition at 0.2 uM measured after 72 hrs in presence of 0.4 uM of vorinostat by CellTiterGlo assay. The data set is classed as functional. The settings on record: read-out: GI.
Data set [6] concerns MV4-11. The data set is described as follows: Antiproliferative activity against human MV4-11 cells assessed as growth inhibition at 0.4 uM measured after 72 hrs in presence of 0.4 uM of vorinostat by CellTiterGlo assay. Particulars: read-out: GI. The data set is classed as functional.
The subject of data set [7] is MV4-11. The data set is described as follows: Antiproliferative activity against human MV4-11 cells assessed as growth inhibition at 0.4 uM measured after 72 hrs in presence of 0.5 uM of vorinostat by CellTiterGlo assay. The data set is classed as functional. The settings on record: read-out: GI.
The subject of data set [8] is MV4-11. The data set is described as follows: Antiproliferative activity against human MV4-11 cells assessed as growth inhibition at 0.5 uM measured after 72 hrs in presence of 0.05 uM of vorinostat by CellTiterGlo assay. Format: functional. The settings on record: read-out: GI.
Data set [9] has as its system MV4-11. The data set is described as follows: Antiproliferative activity against human MV4-11 cells assessed as growth inhibition at 0.5 uM measured after 72 hrs in presence of 0.4 uM of vorinostat by CellTiterGlo assay. The data set is classed as functional. Particulars: read-out: GI.
Data set [10] concerns MV4-11. Briefly: Antiproliferative activity against human MV4-11 cells assessed as growth inhibition at 2 uM measured after 72 hrs in presence of 0.2 uM of vorinostat by CellTiterGlo assay. The data set is classed as functional. The settings on record: read-out: GI.
In data set [11] the test system is MV4-11. Briefly: Antiproliferative activity against human MV4-11 cells assessed as growth inhibition at 2 uM measured after 72 hrs in presence of 1 uM of vorinostat by CellTiterGlo assay. The data set is classed as functional. The settings on record: read-out: GI.
Data set [12] has as its system MV4-11. The data set is described as follows: Induction of apoptosis in human MV4-11 cells assessed as early apoptotic cells at 200 nM incubated for 72 hrs by Annexin V/PI staining based flow cytometry analysis (reference value: 0.76%). The data set is classed as functional. For orientation: In flow cytometry, cells or beads pass a laser one at a time.
Data set [13] relates to MV4-11. The data set is described as follows: Induction of apoptosis in human MV4-11 cells assessed as late apoptotic cells at 200 nM incubated for 72 hrs by Annexin V/PI staining based flow cytometry analysis (reference value: 6.42%). The data set is classed as functional.
Data set [14] has as its system MV4-11. Briefly: Induction of apoptosis in human MV4-11 cells assessed as early apoptotic cells at 200 nM incubated for 72 hrs in presence of vorinostat by Annexin V/PI staining based flow cytometry analysis (reference value: 0.76 %). The data set is classed as functional.
The test system of data set [15] is MV4-11. The data set is described as follows: Induction of apoptosis in human MV4-11 cells assessed as late apoptotic cells at 200 nM incubated for 72 hrs in presence of vorinostat by Annexin V/PI staining based flow cytometry analysis (reference value: 6.42 %). Format: functional.
In data set [16] the test system is MV4-11. The data set is described as follows: Induction of apoptosis in human MV4-11 cells assessed as late apoptotic cells at 400 nM incubated for 72 hrs in presence of vorinostat by Annexin V/PI staining based flow cytometry analysis (reference value: 6.42 %). Format: functional.
The target of the next data set is Histone deacetylase 1 (Homo sapiens, UniProt Q13547). Briefly: Inhibition of HDAC1 (unknown origin) by fluorescence based assay.
The subject of data set [17] is MV4-11. Briefly: Induction of apoptosis in human MV4-11 cells assessed as viable cells at 50 nmol/L incubated for 72 hrs by Annexin V/PI staining based flow cytometry analysis (reference value: 90.23%). The data set is classed as functional. The settings on record: read-out: Activity.
Data set [18] has as its system MV4-11. Briefly: Induction of apoptosis in human MV4-11 cells assessed as early apoptotic cells at 50 nmol/L incubated for 72 hrs by Annexin V/PI staining based flow cytometry analysis (reference value: 4.17 %). The data set is classed as functional.
The subject of data set [19] is MV4-11. The data set is described as follows: Induction of apoptosis in human MV4-11 cells assessed as necrotic cells at 50 nmol/L incubated for 72 hrs by Annexin V/PI staining based flow cytometry analysis (reference value: 0.46%). The data set is classed as functional.
Data set [20] deals with MV4-11. Briefly: Induction of apoptosis in human MV4-11 cells assessed as late apoptotic cells at 100 nmol/L incubated for 72 hrs by Annexin V/PI staining based flow cytometry analysis (reference value: 5.14%). Format: functional.
The subject of data set [21] is MV4-11. The data set is described as follows: Induction of apoptosis in human MV4-11 cells assessed as necrotic cells at 100 nmol/L incubated for 72 hrs by Annexin V/PI staining based flow cytometry analysis (reference value: 0.46%). The data set is classed as functional.
Data set [22] has as its system MV4-11. Briefly: Antitumor activity against human MV4-11 cells xenografted in mouse assessed as tumor growth inhibition at 20 mg/kg, ip administered daily for 17 days. Particulars: MV4-11, 408 h, time 17 day, read-out: TGI. Format: functional.
Data set [23] in a line: Toxicity in mouse implanted in human MV4-11 cells assessed as kidney damage at 10 to 30 mg/kg, ip administered daily for 17 days by H and E staining based analysis. The data set is classed as organism-based. Particulars: in vivo, 408 h, dose 10-30 mg/kg, time 17 day.

SMILES strings stand for the structures.

Histone deacetylase 1, sequence (Q13547 whole entry): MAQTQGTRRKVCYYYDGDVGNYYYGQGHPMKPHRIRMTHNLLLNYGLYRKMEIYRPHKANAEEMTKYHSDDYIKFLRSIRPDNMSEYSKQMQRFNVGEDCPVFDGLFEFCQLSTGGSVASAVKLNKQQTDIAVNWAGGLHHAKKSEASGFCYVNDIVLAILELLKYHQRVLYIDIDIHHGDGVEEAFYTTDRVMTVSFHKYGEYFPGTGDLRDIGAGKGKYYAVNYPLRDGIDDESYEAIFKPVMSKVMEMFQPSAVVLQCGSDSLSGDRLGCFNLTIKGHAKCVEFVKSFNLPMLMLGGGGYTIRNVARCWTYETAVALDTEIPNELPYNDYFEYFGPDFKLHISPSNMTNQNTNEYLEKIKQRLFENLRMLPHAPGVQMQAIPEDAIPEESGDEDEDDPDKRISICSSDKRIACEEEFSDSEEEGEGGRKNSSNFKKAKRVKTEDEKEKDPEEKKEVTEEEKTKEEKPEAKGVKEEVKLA

`Cc1c(F)c(N)cc(C(=O)Nc2cc(-c3ccc(C(=O)N4CCOCC4)cc3)ccc2N2CCN(C)CC2)c1Cl`: the inhibition of growth at 0.05 µM with MV4-11 [1] turned out to be 30.1%. Also, the inhibition of growth at 0.1 µM in the data set with MV4-11 [2] came to 42.8%; in the data set on MV4-11 [3], 73.6%. For the same compound, the values for the inhibition of growth at 0.2 µM with MV4-11 [4] and in the data set on MV4-11 [5] were 45% and 60.3%, respectively. The inhibition of growth at 0.4 µM with MV4-11 [6] is 62.6%; in the data set with MV4-11 [7] it was 73.3%. The results for the inhibition of growth at 0.5 µM in the data set with MV4-11 [8] and in the data set with MV4-11 [9] were 50.1% and 65.2%, respectively. Besides, the results for the inhibition of growth at 2 µM in the data set on MV4-11 [10] and in the data set with MV4-11 [11] were 72.3% and 95.6%, respectively. In addition, the Activity in the data set with MV4-11 [12] is 7.03%; with MV4-11 [13] it was 1.08%; in the data set on MV4-11 [14] it was 33.87%; with MV4-11 [15], 7.65%; with MV4-11 [16] it was 16.81%.
What is called IC50 is the concentration that gives 50% inhibition. Lower therefore signals greater potency in that assay. `Cc1c(F)c(N)cc(C(=O)Nc2cc(-c3ccc(C(=O)NCc4ccc(/C=C/C(=O)NO)cc4)cc3)ccc2N2CCN(C)CC2)c1Cl`: on Histone deacetylase 1, the IC50 was 400 nM. Further, the viability at 0.05 µM in the data set with MV4-11 [17] came to 75.7%. Further, the Activity in the data set with MV4-11 [18] was 11.03%; in the data set with MV4-11 [19], 2.44%; with MV4-11 [20], 7.14%; in the data set with MV4-11 [21] it was 1.84%; in data set [23], “Non-toxic”. For the same compound, the inhibition in vivo at 20 mg/kg in the data set on MV4-11 [22] amounted to 69%.
